Measured values published in US6140368A, “Naphthols useful in antiviral methods” (The Regents of the University of California, priority 1998, dated 2000).
Read-outs that look alike come from different tables or passages of the source.

Columns and labels:
HIV integrase [1] = target: T1, HIV integrase (Human immunodeficiency virus type 1 group M subtype B, UniProt P04585); test: biochemical
HIV integrase [2] = target: T1, HIV integrase; test: biochemical; remark: listed apart in the source
[3] = target: HIV reverse transcriptase (Human immunodeficiency virus type 1 group M subtype B, UniProt P03366); test: Reverse transcriptase scintillation proximity assay (Example 4, Table 2); format: biochemical; conditions: for IC50: read-out: IC50 (RT activity); for remaining activity at 10 µM: 0.05 h, read-out: % RT activity remaining at 10 μM
In short: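 Purified RT with biotinylated 17mer/50mer RNA-DNA template-primer (39 nm), pH 8.0 Tris with 10 mM MgCl2, 60 mM KCl, dNTPs plus tritiated dTTP; inhibitor preincubated 10 min at 37 °C before enzyme, reaction 3 min. Incorporation read by streptavidin SPA counting.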

HIV = test: Cell-based anti-HIV (XTT) assay (National Institutes of Health); conditions: run by the National Institutes of Health
Text: The anti-viral evaluations branch of the National Institutes of Health also ran cell-based anti-HIV (XTT) assays and reverse transcriptase (RT) assays on a number of the novel compounds. […] These were: 31, 32, 35, 36, 53, 54, 57, 58, 91, 99, and 103.

[4] = read-out: Inhibition of 3' processing activity (IC50)
[5] = read-out: Inhibition of strand transfer (IC50)
[6] = 10 μM inhibitor, relative to dimethyl sulfoxide = 100%

Structure (SMILES): O=C(Nc1ccc2c(O)c(N=Nc3cccc(C(=O)O)c3)c(S(=O)(=O)O)cc2c1)Nc1ccc2c(O)c(N=Nc3cccc(C(=O)O)c3)c(S(=O)(=O)O)cc2c1 [Compound 58]
- IC50 (HIV integrase [1]; [4]): 200 nM
- IC50 (HIV integrase [2]; [5]): 600 nM
- IC50 [3]: 800 nM
- conclusion of cell-based anti-HIV (XTT) assays and reverse transcriptase (RT) assays (HIV): active or moderately active

Structure (SMILES): O=C(O)CCCc1ccc(N=Nc2c(S(=O)(=O)O)cc3cc(NC(=O)Nc4ccc5c(O)c(N=Nc6ccc(CCCC(=O)O)cc6)c(S(=O)(=O)O)cc5c4)ccc3c2O)cc1 [Compound 36]
- IC50 (HIV integrase [1]; [4]): 800 nM
- IC50 (HIV integrase [2]; [5]): 1000 nM
- IC50 [3]: 500 nM
- conclusion of cell-based anti-HIV (XTT) assays and reverse transcriptase (RT) assays (HIV): active or moderately active

Structure (SMILES): O=C(Nc1ccc2c(O)c(N=Nc3cccc([N+](=O)[O-])c3)c(S(=O)(=O)O)cc2c1)Nc1ccc2c(O)c(N=Nc3cccc([N+](=O)[O-])c3)c(S(=O)(=O)O)cc2c1 [Compound 45]
- IC50 (HIV integrase [1]; Inhibition of 3' processing activity (IC50)): > 3000 nM
- IC50 (HIV integrase [2]; Inhibition of strand transfer (IC50)): > 3000 nM
- remaining activity at 10 µM [3, 6]: 2.8%

Structure (SMILES): O=C(O)Cc1ccc(N=Nc2c(S(=O)(=O)O)cc3cc(NC(=O)Nc4ccc5c(O)c(N=Nc6ccc(CC(=O)O)cc6)c(S(=O)(=O)O)cc5c4)ccc3c2O)cc1 [Compound 32]
- IC50 (HIV integrase [1]; [4]): 2000 nM
- IC50 (HIV integrase [2]; [5]): 700 nM
- IC50 [3]: 500 nM
- conclusion of cell-based anti-HIV (XTT) assays and reverse transcriptase (RT) assays (HIV): active or moderately active

Structure (SMILES): COc1cc(C(=O)O)ccc1N=Nc1c(S(=O)(=O)O)cc2cc(NC(=O)Nc3ccc4c(O)c(N=Nc5ccc(C(=O)O)cc5OC)c(S(=O)(=O)O)cc4c3)ccc2c1O [Compound 54]
- IC50 (HIV integrase [1]; [4]): 4000 nM
- IC50 (HIV integrase [2]; [5]): 2000 nM
- remaining activity at 10 µM [3, 6]: 0.6%
- conclusion of cell-based anti-HIV (XTT) assays and reverse transcriptase (RT) assays (HIV): active or moderately active

Structure (SMILES): COc1cc(N=Nc2c(S(=O)(=O)O)cc3cc(NC(=O)Nc4ccc5c(O)c(N=Nc6cc(OC)cc(OC)c6)c(S(=O)(=O)O)cc5c4)ccc3c2O)cc(OC)c1 [Compound 38]
- IC50 (HIV integrase [1]; [4]): > 3000 nM
- IC50 (HIV integrase [2]; [5]): > 3000 nM
- remaining activity at 10 µM [3, 6]: 47%

Structure (SMILES): Cc1cc(C(=O)O)ccc1N=Nc1c(S(=O)(=O)O)cc2cc(NC(=O)Nc3ccc4c(O)c(N=Nc5ccc(C(=O)O)cc5C)c(S(=O)(=O)O)cc4c3)ccc2c1O [Compound 53]
- IC50 (HIV integrase [1]; [4]): 500 nM
- IC50 (HIV integrase [2]; [5]): 2000 nM
- IC50 [3]: 600 nM
- conclusion of cell-based anti-HIV (XTT) assays and reverse transcriptase (RT) assays (HIV): active or moderately active

Structure (SMILES): O=C(O)CC(C(=O)O)c1ccc(N=Nc2c(S(=O)(=O)O)cc3cc(NC(=O)Nc4ccc5c(O)c(N=Nc6ccc(C(CC(=O)O)C(=O)O)cc6)c(S(=O)(=O)O)cc5c4)ccc3c2O)cc1 (centres unmarked) [Compound 33]
- IC50 (HIV integrase [1]; [4]): 300 nM
- IC50 (HIV integrase [2]; [5]): 600 nM
- IC50 [3]: 500 nM

Structure (SMILES): CCOC(=O)c1ccccc1N=Nc1c(S(=O)(=O)O)cc2cc(NC(=O)Nc3ccc4c(O)c(N=Nc5ccccc5C(=O)OCC)c(S(=O)(=O)O)cc4c3)ccc2c1O [Compound 42]
- IC50 (HIV integrase [1]; [4]): > 3000 nM
- IC50 (HIV integrase [2]; [5]): > 3000 nM
- remaining activity at 10 µM [3, 6]: 47%

Structure (SMILES): O=C(Nc1ccc2c(O)c(N=Nc3ccc(C(=O)O)cc3)c(S(=O)(=O)O)cc2c1)Nc1ccc2c(O)c(N=Nc3ccc(C(=O)O)cc3)c(S(=O)(=O)O)cc2c1 [Compound 31]
- IC50 (HIV integrase [1]; [4]): 400 nM
- IC50 (HIV integrase [2]; [5]): 700 nM
- IC50 [3]: 390 nM
- conclusion of cell-based anti-HIV (XTT) assays and reverse transcriptase (RT) assays (HIV): active or moderately active

Structure (SMILES): COc1ccc(N=Nc2c(S(=O)(=O)O)cc3cc(NC(=O)Nc4ccc5c(O)c(N=Nc6ccc(OC)c(OC)c6)c(S(=O)(=O)O)cc5c4)ccc3c2O)cc1OC [Compound 39]
- IC50 (HIV integrase [1]; [4]): 2000 nM
- IC50 (HIV integrase [2]; [5]): 3000 nM
- remaining activity at 10 µM [3, 6]: 12%

Structure (SMILES): COc1cc(C(=O)O)ccc1N=Nc1c(S(=O)(=O)O)cc2cc(NC(=O)C(=O)Nc3ccc4c(O)c(N=Nc5ccc(C(=O)O)cc5OC)c(S(=O)(=O)O)cc4c3)ccc2c1O [Compound 99]
- IC50 (HIV integrase [2]; [5]): 300 nM
- conclusion of cell-based anti-HIV (XTT) assays and reverse transcriptase (RT) assays (HIV): active or moderately active

Structure (SMILES): O=C(Nc1ccc2c(O)c(N=Nc3cccc4c(=O)[nH][nH]c(=O)c34)c(S(=O)(=O)O)cc2c1)Nc1ccc2c(O)c(N=Nc3cccc4c(=O)[nH][nH]c(=O)c34)c(S(=O)(=O)O)cc2c1 [Compound 49]
- IC50 (HIV integrase [1]; [4]): 2000 nM
- IC50 (HIV integrase [2]; [5]): 1000 nM
- remaining activity at 10 µM [3, 6]: 1%

Structure (SMILES): O=C(Nc1ccc2c(O)c(N=Nc3ccc(CP(=O)(O)O)cc3)c(S(=O)(=O)O)cc2c1)Nc1ccc2c(O)c(N=Nc3ccc(CP(=O)(O)O)cc3)c(S(=O)(=O)O)cc2c1 [Compound 61]
- IC50 (HIV integrase [1]; [4]): > 3000 nM
- IC50 (HIV integrase [2]; [5]): > 3000 nM
- remaining activity at 10 µM [3]: 53%

Structure (SMILES): CCOC(=O)c1cccc(N=Nc2c(S(=O)(=O)O)cc3cc(NC(=O)Nc4ccc5c(O)c(N=Nc6cccc(C(=O)OCC)c6)c(S(=O)(=O)O)cc5c4)ccc3c2O)c1 [Compound 43]
- IC50 (HIV integrase [1]; [4]): > 20000 nM
- IC50 (HIV integrase [2]; [5]): > 20000 nM
- remaining activity at 10 µM [3, 6]: 52%
